# Read-outs that look alike come from different tables or passages of the source.
# Target: T1, F508delCFTR (Homo sapiens, UniProt P13569, DEL508-508)
# T1 construct: expressed in transfected cells; host or cells: CFBE41o- human lung-derived epithelial cells (CFBE4lo-F508delCFTR-HRP), doxycycline-inducible
# Test: Cell Surface Expression-Horse Radish Peroxidase (CSE-HRP) Assay;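 for Maximum % activity (with co-corrector): co-corrector and positive control are both the same reference corrector at 2 µM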;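 for Maximum % activity (without co-corrector): percent of the 2 µM on-plate positive control corrector response above DMSO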
# Type: cell-based
# Settings: for Emax / Maximum % activity (with co-corrector): maximum at any tested concentration, normalized to on-plate positive control; for Emax: read-out: Maximum % activity (without co-corrector); for Maximum % activity (with co-corrector): with co-corrector (2 μM)
# [1] = test compound without co-corrector
# [2] = test compound without co-corrector, read-out: EC50 (without co-corrector)
# [3] = with co-corrector (2 μM of 3-[(2R,4R)-4-({[1-(2,2-difluoro-1,3-benzodioxol-5-yl)cyclopropyl]carbonyl}amino)-7-methoxy-3,4-dihydro-2H-chromen-2-yl]benzoic acid), read-out: EC50 (with co-corrector)
# T1 sequence (P13569 with tags, fused parts or gaps DEL508-508): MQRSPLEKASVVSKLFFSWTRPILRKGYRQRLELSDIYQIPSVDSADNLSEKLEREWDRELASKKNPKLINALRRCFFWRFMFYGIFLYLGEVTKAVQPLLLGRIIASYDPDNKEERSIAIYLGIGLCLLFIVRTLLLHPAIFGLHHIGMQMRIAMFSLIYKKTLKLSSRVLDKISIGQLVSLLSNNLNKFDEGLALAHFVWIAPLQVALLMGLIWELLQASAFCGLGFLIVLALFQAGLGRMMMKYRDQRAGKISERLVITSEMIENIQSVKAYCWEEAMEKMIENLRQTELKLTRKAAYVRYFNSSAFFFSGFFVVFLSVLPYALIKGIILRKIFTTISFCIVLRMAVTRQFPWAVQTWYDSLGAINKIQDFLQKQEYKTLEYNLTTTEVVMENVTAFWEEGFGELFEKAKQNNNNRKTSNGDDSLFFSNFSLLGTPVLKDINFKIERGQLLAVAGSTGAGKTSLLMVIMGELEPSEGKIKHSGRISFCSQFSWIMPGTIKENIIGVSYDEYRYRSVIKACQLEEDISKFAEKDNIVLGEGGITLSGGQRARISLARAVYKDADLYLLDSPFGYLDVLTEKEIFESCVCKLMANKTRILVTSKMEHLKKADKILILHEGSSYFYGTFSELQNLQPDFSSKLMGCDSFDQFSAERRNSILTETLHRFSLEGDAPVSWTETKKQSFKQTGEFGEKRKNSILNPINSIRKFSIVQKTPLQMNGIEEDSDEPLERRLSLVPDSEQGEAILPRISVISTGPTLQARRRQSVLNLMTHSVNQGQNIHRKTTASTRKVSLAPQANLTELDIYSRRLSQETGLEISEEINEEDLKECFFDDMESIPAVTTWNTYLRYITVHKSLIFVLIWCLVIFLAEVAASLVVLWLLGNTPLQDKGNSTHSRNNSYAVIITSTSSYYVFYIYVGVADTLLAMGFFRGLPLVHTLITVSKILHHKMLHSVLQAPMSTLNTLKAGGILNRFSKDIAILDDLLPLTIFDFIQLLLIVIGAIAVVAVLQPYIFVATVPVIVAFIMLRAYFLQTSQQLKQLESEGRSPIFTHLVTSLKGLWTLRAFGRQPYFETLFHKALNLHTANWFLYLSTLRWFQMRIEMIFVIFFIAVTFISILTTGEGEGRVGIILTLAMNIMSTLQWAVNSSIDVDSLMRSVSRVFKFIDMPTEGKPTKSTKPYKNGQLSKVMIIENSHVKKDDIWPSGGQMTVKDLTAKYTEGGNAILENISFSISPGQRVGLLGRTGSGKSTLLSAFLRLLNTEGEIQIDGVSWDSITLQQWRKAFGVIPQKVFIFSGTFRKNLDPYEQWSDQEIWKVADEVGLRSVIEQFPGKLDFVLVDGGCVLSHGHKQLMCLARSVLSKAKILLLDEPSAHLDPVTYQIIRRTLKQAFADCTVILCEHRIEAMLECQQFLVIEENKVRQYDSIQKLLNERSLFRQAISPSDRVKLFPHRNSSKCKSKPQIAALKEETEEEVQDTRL
SMILES,Emax [1],EC50 [2],EC50 [3],Maximum % activity (with co-corrector)
CC(C)(C)[C@H]1[C@H](NCc2ccc3c(c2)OCCCO3)[C@H](c2ccccc2)N(C(=O)C2CCCCC2)[C@@H]1C(=O)O [III-129],< 100%,> 10 µM,1 to 10 µM,++ (≥150 and <350)
CC(C)(C)[C@H]1[C@H](NCc2ccc(Cl)c(Cl)c2)[C@H](c2ccccc2)N(C(=O)C2CCCCC2)[C@@H]1C(=O)O [III-130],< 100%,> 10 µM,1 to 10 µM,++ (≥150 and <350)
CC(C)(C)[C@H]1[C@H](NCc2cc(Br)ccc2OC(F)F)[C@H](c2ccccc2)N(C(=O)C2CCCCC2)[C@@H]1C(=O)O [III-131],< 100%,< 1 µM,1 to 10 µM,+++ (≥350)
CC(C)(C)[C@H]1[C@H](NCc2ccc3c(c2)OC(F)(F)O3)[C@H](c2ccccc2)N(C(=O)C2CCCCC2)[C@@H]1C(=O)O [III-132],< 100%,> 10 µM,1 to 10 µM,++ (≥150 and <350)
COc1cc(CN[C@H]2[C@H](C(C)(C)C)[C@@H](C(=O)O)N(C(=O)C3CCCCC3)[C@H]2c2ccccc2)cc(OC)c1 [III-133],< 100%,> 10 µM,1 to 10 µM,++ (≥150 and <350)
Cc1ccc(CN[C@H]2[C@H](C(C)(C)C)[C@@H](C(=O)O)N(C(=O)C3CCCCC3)[C@H]2c2ccccc2)cc1C [III-134],< 100%,1 to 10 µM,1 to 10 µM,++ (≥150 and <350)
CC(C)(C)[C@H]1[C@H](NCc2ccc3occc3c2)[C@H](c2ccccc2)N(C(=O)C2CCCCC2)[C@@H]1C(=O)O [III-135],< 100%,> 10 µM,1 to 10 µM,++ (≥150 and <350)
CC(C)(C)[C@H]1[C@H](NCc2ccc(C(F)(F)F)cc2F)[C@H](c2ccccc2)N(C(=O)C2CCCCC2)[C@@H]1C(=O)O [III-136],< 100%,> 10 µM,1 to 10 µM,++ (≥150 and <350)
COc1ccc(C(F)(F)F)cc1CN[C@H]1[C@H](C(C)(C)C)[C@@H](C(=O)O)N(C(=O)C2(S(C)(=O)=O)CC2)[C@H]1c1ccccc1 [III-137],< 100%,1 to 10 µM,1 to 10 µM,++ (≥150 and <350)
CC(C)(C)[C@H]1[C@H](NCc2ccc(C(F)(F)F)cc2)[C@H](c2ccccc2)N(C(=O)C2CCCCC2)[C@@H]1C(=O)O [III-138],< 100%,> 10 µM,1 to 10 µM,++ (≥150 and <350)
CC(C)(C)[C@H]1[C@H](NCc2ccccc2C(F)F)[C@H](c2ccccc2)N(C(=O)C2CCCCC2)[C@@H]1C(=O)O [III-139],< 100%,< 1 µM,< 1 µM,++ (≥150 and <350)
CC(C)(C)[C@H]1[C@H](NCc2cc(Cl)c3c(c2)OCO3)[C@H](c2ccccc2)N(C(=O)C2CCCCC2)[C@@H]1C(=O)O [III-140],< 100%,> 10 µM,1 to 10 µM,++ (≥150 and <350)
Cc1cc(CN[C@H]2[C@H](C(C)(C)C)[C@@H](C(=O)O)N(C(=O)C3CCCCC3)[C@H]2c2ccccc2)cc(C)c1OC(F)F [III-141],< 100%,1 to 10 µM,1 to 10 µM,++ (≥150 and <350)
CC(C)(C)[C@H]1[C@H](NCc2cc3c(cc2Cl)OCO3)[C@H](c2ccccc2)N(C(=O)C2CCCCC2)[C@@H]1C(=O)O [III-142],< 100%,1 to 10 µM,1 to 10 µM,++ (≥150 and <350)
CC(C)(C)[C@H]1[C@H](Nc2nc(Cl)c(F)cc2C#N)[C@H](c2ccccc2)N(C(=O)C2CCCCC2)[C@@H]1C(=O)O [III-145],< 100%,1 to 10 µM,1 to 10 µM,++ (≥150 and <350)
CC(C)(C)[C@H]1[C@H](Nc2cc(C#N)cc(Cl)n2)[C@H](c2ccccc2)N(C(=O)C2CCCCC2)[C@@H]1C(=O)O [III-146],< 100%,> 10 µM,1 to 10 µM,++ (≥150 and <350)
CC(C)(O)c1cc(Cl)nc(N[C@H]2[C@H](C(C)(C)C)[C@@H](C(=O)O)N(C(=O)C3CCCCC3)[C@H]2c2ccccc2)c1 [III-147],< 100%,> 10 µM,1 to 10 µM,++ (≥150 and <350)
Cc1cc(C)c(C#N)c(N[C@H]2[C@H](C(C)(C)C)[C@@H](C(=O)O)N(C(=O)C3CCCCC3)[C@H]2c2ccccc2)n1 [III-148],< 100%,1 to 10 µM,1 to 10 µM,+++ (≥350)
CCc1cc2ccc(Cl)cc2nc1N[C@H]1[C@H](C(C)(C)C)[C@@H](C(=O)O)N(C(=O)C2CCCCC2)[C@H]1c1ccccc1 [III-149],100 to 200%,1 to 10 µM,1 to 10 µM,+++ (≥350)
CC(C)(C)[C@H]1[C@H](Nc2nc(Nc3ccccc3)ccc2C#N)[C@H](c2ccccc2)N(C(=O)C2CCCCC2)[C@@H]1C(=O)O [III-150],< 100%,> 10 µM,> 10 µM,+ (<150)
COc1ccc2c(C)cc(N[C@H]3[C@H](C(C)(C)C)[C@@H](C(=O)O)N(C(=O)C4CCCCC4)[C@H]3c3ccccc3)nc2c1 [III-151],< 100%,1 to 10 µM,1 to 10 µM,++ (≥150 and <350)
CCOc1cc(N[C@H]2[C@H](C(C)(C)C)[C@@H](C(=O)O)N(C(=O)C3CCCCC3)[C@H]2c2ccccc2)nc2ccccc12 [III-152],< 100%,> 10 µM,1 to 10 µM,++ (≥150 and <350)
CC(C)(C)[C@H]1[C@H](Nc2ccc(Cn3ccccc3=O)cn2)[C@H](c2ccccc2)N(C(=O)C2CCCCC2)[C@@H]1C(=O)O [III-153],< 100%,> 10 µM,> 10 µM,+ (<150)
COc1ccc2cc(C)nc(N[C@H]3[C@H](C(C)(C)C)[C@@H](C(=O)O)N(C(=O)C4CCCCC4)[C@H]3c3ccccc3)c2c1 [III-154],< 100%,1 to 10 µM,1 to 10 µM,++ (≥150 and <350)
CC(C)(C)NC(=O)c1ccc(N[C@H]2[C@H](C(C)(C)C)[C@@H](C(=O)O)N(C(=O)C3CCCCC3)[C@H]2c2ccccc2)nc1 [III-155],< 100%,> 10 µM,1 to 10 µM,+ (<150)
CC(C)(C)[C@H]1[C@H](Nc2cc3ccccc3cn2)[C@H](c2ccccc2)N(C(=O)C2CCCCC2)[C@@H]1C(=O)O [III-156],< 100%,< 1 µM,1 to 10 µM,++ (≥150 and <350)
Cn1c(=O)c2c(N[C@H]3[C@H](C(C)(C)C)[C@@H](C(=O)O)N(C(=O)C4CCCCC4)[C@H]3c3ccccc3)nccc2n(C)c1=O [III-157],< 100%,> 10 µM,1 to 10 µM,++ (≥150 and <350)
CC(C)(C)[C@H]1[C@H](Nc2ccc(C3(C#N)CC3)cn2)[C@H](c2ccccc2)N(C(=O)C2CCCCC2)[C@@H]1C(=O)O [III-159],< 100%,> 10 µM,1 to 10 µM,++ (≥150 and <350)
CC(C)(C)[C@H]1[C@H](Nc2ncccc2OCc2ccccc2)[C@H](c2ccccc2)N(C(=O)C2CCCCC2)[C@@H]1C(=O)O [III-160],< 100%,1 to 10 µM,1 to 10 µM,++ (≥150 and <350)
CC(C)(C)NC(=O)c1cncc(N[C@H]2[C@H](C(C)(C)C)[C@@H](C(=O)O)N(C(=O)C3CCCCC3)[C@H]2c2ccccc2)c1 [III-161],< 100%,> 10 µM,> 10 µM,+ (<150)

# Reference: US20180099931A1 (AbbVie S.à.r.l., priority 2016, published 2018)
